Test in all cases: NCI anticancer screen, dose series, 48 h
The test system of test [1] is HOP-62 NSCLC.
Test [2] deals with HOP-18 NSCLC.
The subject of test [3] is HCC-2998 colon.
For test [4], the system named is SF-539 CNS.
The subject of test [5] is SNB-78 CNS.
Test [6] deals with HOP-92 NSCLC.
Test [7] relates to DLD-1 colon.
For test [8], the system named is DMS 114 small cell lung.
In test [9] the test system is XF 498 CNS.
Test [10] concerns BT-549 breast.
Test [11] concerns MDA-MB-231 breast.

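Growth conditions: 96-well plates. Treatment: test compound, 48 hours, 5 concentrations. Analysis: linear interpolation between bracketing concentrations; unreached endpoints set to highest concentration. TGI marks complete inhibition of growth.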 Bounds are passed on as bounds.

Experimental findings from PubChem BioAssay (NCI) are described below.

In the case of `CC(=O)C1Cn2c(nc3ccccc32)C[Se]1` (centres undefined), the TGI in test [1] came to 5.39 µM; in [2] it was 5.44 µM; in [3], 22.9 µM; in [4], 4.89 µM; in [5], 17.2 µM; in test [6], 4.72 µM. Moreover, the TGI was determined as 13 µM in test [7] and 4.54 µM in test [8].
Consider `COC(=O)C12CC3CC(CC(C(=O)O)(C3)C1)C2`, for which the TGI in test [1], in test [2], in test [3], in test [4], in [9] and in test [5] was > 100 µM throughout. The TGI in [6] is > 100 µM.
Take `CC(=O)O[C@H]1CCC2[C@@H]3CC[C@]4(C)CC(=O)C=C[C@]4(C)C3CC[C@@]21C` (some centres undefined): the TGI in [1] was 97.9 µM; in test [10], 32.1 µM; in [2], > 53.7 µM; in test [3], > 88.5 µM; in test [4], 31.8 µM; in test [11], 77.9 µM. In addition, the TGI was 22.3 µM in test [5], > 100 µM in test [6], 56.9 µM in [7] and 24.2 µM in test [8].
`COc1ccc2c3c([nH]c2c1[N+](=O)[O-])C(C)N(C)CC3` (centres undefined): the TGI is > 100 µM in [1]; 84.9 µM in [2]; > 100 µM in test [3]; > 100 µM in test [4]; > 100 µM in [9]; > 100 µM in test [5]. Moreover, the TGI in test [6], in [7] and in test [8] was > 100 µM in each case.
On to `CCCCNC1CCCCC[C@H]1O` (some centres undefined), for which the TGI in test [1], in test [2], in test [3], in test [4], in test [5] and in test [6] was > 100 µM throughout. Moreover, the TGI in test [7] and in [8] was > 100 µM each time.
Consider `C=C(C)CCN[Si](c1ccccc1)(c1ccccc1)C(C)(C)C`, for which the TGI in test [1] amounted to 31.4 µM; in [2] it was 33.4 µM; in [3], 43.3 µM; in test [4] it was 29.1 µM; in [9] it was 40.9 µM; in test [5], 79 µM. The TGI is 34.2 µM in [6] and 51.3 µM in test [8].
Turning to `COC(=O)C(CC(=O)Nc1ccc(C)cc1)C(=O)C(=O)Nc1c(C(C)C)cccc1C(C)C` (centres undefined), the TGI in test [1], in [3], in test [4], in test [9], in [5] and in test [6] was > 100 µM in each case. Also, the TGI in [7] and in test [8] was > 100 µM throughout.
Consider `COc1cc(/C=C/c2ccc(OC)c(O)c2)cc(OC)c1`, for which the TGI was determined as 15.4 µM in test [1]; 42.6 µM in [3]; 8.47 µM in test [4]; 9.52 µM in [9]; 44.4 µM in test [5]; 29.4 µM in test [6]. The TGI in test [7] amounted to 24.7 µM; in test [8], 17.9 µM.
`COC(=O)[C@@]12C(=O)C=CC(=O)C1C1C(=CC2C)OC2OC3(CCCCC3)OC21` (some centres undefined): the TGI in test [1] is 35.8 µM; in test [2], 34.6 µM; in test [3], 28.2 µM; in [5] it was 42.3 µM; in test [7], 35.7 µM; in [8] it was 31.4 µM.
As to `COc1ccc(CN2CC(C)(C)C2=O)c(OC)c1`, the TGI in test [1], in [2], in [3], in test [4], in test [9] and in test [5] was > 100 µM in each case. For the same compound, the TGI in [6] and in [8] was > 100 µM each time.
For `c1ccc(C2N3CCCCC3[C@@H]3c4[nH]c5ccccc5c4CCN23)nc1` (some centres undefined), the TGI in [1], in test [2], in [4], in [5], in [6] and in test [7] was > 100 µM throughout. Further, in test [8], the TGI was 96.3 µM.
With `CCOC(=O)C1SC(=Nc2ccc(C)c(C)c2)N=C1C` (centres undefined), the TGI in test [1], in [2], in test [3], in test [4], in test [9] and in [6] was > 100 µM throughout. The TGI in [7] and in test [8] was > 100 µM in each case.
Regarding `CN(C)CCC1(C2=CCCC2)CC/C(=C\c2ccc(Cl)cc2)C1=O` (centres undefined), the TGI in test [1] was 32.7 µM; in test [2] it was 24.8 µM; in test [3], 20.2 µM; in [4], 25.7 µM; in test [9] it was 19.1 µM; in test [5] it was 26.9 µM. For the same compound, the TGI was found to be 15.4 µM in test [6], 20.6 µM in test [7] and 21.8 µM in test [8].
